Test [1] addresses T1, 5-hydroxytryptamine receptor 2A (Homo sapiens, UniProt P28223). Kind of test: Displacement of [3H]ketanserin from human cloned 5HT2A receptor. A general note: Displacement assays read how much labelled ligand stays bound in the presence of the test substance.
Test [2] concerns the target T1, 5-hydroxytryptamine receptor 2A. Kind of test: Antagonist activity at human cloned 5HT2A receptor. The format is functional.
Test [3] deals with T2, 5-hydroxytryptamine receptor 2C (Homo sapiens, UniProt P28335).
T2 sequence (P28335 whole entry): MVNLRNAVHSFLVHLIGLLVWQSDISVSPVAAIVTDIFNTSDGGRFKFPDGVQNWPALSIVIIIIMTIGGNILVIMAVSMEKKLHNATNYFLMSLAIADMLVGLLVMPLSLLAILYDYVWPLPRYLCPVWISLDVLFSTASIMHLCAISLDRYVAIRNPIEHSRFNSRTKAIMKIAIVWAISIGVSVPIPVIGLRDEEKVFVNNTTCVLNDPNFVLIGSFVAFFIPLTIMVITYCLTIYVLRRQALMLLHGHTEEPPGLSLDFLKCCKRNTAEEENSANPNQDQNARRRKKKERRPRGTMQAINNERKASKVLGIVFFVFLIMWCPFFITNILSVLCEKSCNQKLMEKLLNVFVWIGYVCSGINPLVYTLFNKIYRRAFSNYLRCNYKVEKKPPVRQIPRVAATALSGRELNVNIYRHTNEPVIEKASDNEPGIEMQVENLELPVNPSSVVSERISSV
Kind of test: Displacement of [3H]mesulergine from human cloned 5HT2C receptor.

Bounds are passed on as bounds.

T1 sequence (P28223 whole entry): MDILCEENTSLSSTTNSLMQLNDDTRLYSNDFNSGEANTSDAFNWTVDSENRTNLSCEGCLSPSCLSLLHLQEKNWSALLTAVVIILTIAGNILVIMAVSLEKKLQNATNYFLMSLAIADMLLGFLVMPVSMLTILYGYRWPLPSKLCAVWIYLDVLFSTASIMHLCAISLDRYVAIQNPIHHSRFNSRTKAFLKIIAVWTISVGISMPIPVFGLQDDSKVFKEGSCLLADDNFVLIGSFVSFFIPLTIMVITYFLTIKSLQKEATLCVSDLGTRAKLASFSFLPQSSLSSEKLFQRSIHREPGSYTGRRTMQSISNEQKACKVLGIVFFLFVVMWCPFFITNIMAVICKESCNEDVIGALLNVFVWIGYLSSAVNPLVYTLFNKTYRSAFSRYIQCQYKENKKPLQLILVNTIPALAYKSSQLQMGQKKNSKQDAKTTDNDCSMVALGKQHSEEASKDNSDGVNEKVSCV

Take `O=C1CC(CN2CCC(C(=O)c3ccc(F)cc3)CC2)Cc2occc21` (stereo not drawn): the results for the Ki in test [1] and in test [3] were 95.5 nM and 1550 nM, respectively. In addition, in test [2], the pA2 (as a rule, a measure of antagonist potency on a negative log scale) worked out at 7.28.
Consider `O=C1CC(CN2CCC(c3noc4cc(F)ccc34)CC2)Cc2oc(-c3ccccc3)cc21` (stereo not drawn), for which the Ki (usually a dissociation constant, usually derived from enzyme kinetics or from competition with a known ligand) in test [1] is 6.92 nM; in test [3], 3310 nM.
For the compound `O=C1CC(CN2CCN(C(=O)c3ccc(F)cc3)CC2)Cc2occc21` (stereo not drawn), the Ki in test [1] is 1320 nM; in test [3], > 10000 nM.
In the case of `O=C1c2ccoc2CCC1CCN1CCC(c2noc3cc(F)ccc23)CC1` (stereo not drawn), the pA2 in test [2] stood at 9.25.
Consider `O=C1CC(CN2CCC(c3noc4cc(F)ccc34)CC2)Cc2occc21` (racemic), for which the Ki was 5.5 nM in test [1] and 339 nM in test [3]. The compound further had a pA2 in test [2] of 7.95.
For the compound `CCOC(=O)c1oc2c(c1C)C(=O)CC(CN1CCC(c3noc4cc(F)ccc34)CC1)C2` (stereo not drawn), the Ki in test [1] is 8.32 nM; in test [3], > 10000 nM.
The matching figures for `O=C1C[C@H](CN2CCC(c3noc4cc(F)ccc34)CC2)Cc2occc21`: 5.13 nM and 372 nM.
`O=C(c1ccc(F)cc1)C1CCN(CCC2CCc3occc3C2=O)CC1` (stereo not drawn): the Ki is 77.6 nM in test [1] and 339 nM in test [3]. Also, in test [2], the pA2 worked out at 7.58.
Regarding `O=C1CC(CN2CCC(C(=O)c3ccc(F)cc3)CC2)Cc2oc(-c3ccccc3)cc21` (stereo not drawn), the Ki in test [1] was 17.4 nM; in test [3] it was > 10000 nM.
The matching figures for `COC(=O)c1coc2c1C(=O)CC(CN1CCC(C(=O)c3ccc(F)cc3)CC1)C2` (stereo not drawn): 25.7 nM and > 10000 nM.
The matching figures for `CCOC(=O)c1oc2c(c1C)C(=O)CC(CN1CCC(C(=O)c3ccc(F)cc3)CC1)C2` (stereo not drawn): 21.9 nM and > 10000 nM.
`O=C1C[C@@H](CN2CCC(c3noc4cc(F)ccc34)CC2)Cc2occc21`: the Ki was 2.51 nM in test [1] and 245 nM in test [3].
The like results for `COC(=O)c1coc2c1C(=O)CC(CN1CCC(c3noc4cc(F)ccc34)CC1)C2` (stereo not drawn) were, in that order, 1.55 nM and > 10000 nM.

The values above are taken from ChEMBL document CHEMBL1140101, “Synthesis, binding affinity, and molecular docking analysis of new benzofuranone derivatives as potential antipsychotics” (J Med Chem, 2008).
